Results on 15 compounds are retold here after patent US20230140983A1, “PYRIDAZINE DERIVATIVES FOR MODULATING NUCLEIC ACID SPLICING” (REMIX THERAPEUTICS INC., priority 2020, published 2023).

Counter-ions that a name gives are not always drawn. Like-named read-outs stand apart in the source and are kept apart here.

The experiment concerns HTT. The experiment is described as follows: Splicing assay (RT-qPCR on cell lysates) monitoring HTT splice variants: AJ and CJ mRNA. The format is cell-based. The conditions noted are these: concentration having 50% response. As to the method: Example 69: Exemplary Splicing Assay for Monitoring Expression Levels of Splice Variants
To set up 10 uL RT-qPCR reactions, cell lysates were transferred to 384-well qPCR plates containing the master mix according to the table below. The plates were sealed, gently vortexed, and spun down before the run. The volumes were adjusted accordingly in some instances where the reaction was carried in 20 uL. The table below summarizes the components of the RT-qPCR reactions:
The RT-qPCR reaction was performed using a QuantStudio (ThermoFisher) under the following fast cycling conditions. All samples and standards were analyzed at least in duplicate. In some instances, bulk room temperature (RT) step of 5-10 minutes was completed for all plates before proceeding with qPCR. The table below summarizes the PCR cycle:
The data analysis was performed by first determining the ΔCt vs the housekeeper gene. This ΔCt was then normalized against the DMSO control (ΔΔCt) and converted to RQ (relative quantification) using the 2^(−ΔΔCt) equation. The RQ were then converted to a percentage response by arbitrarily setting an assay window of 3.5 ΔCt for HTT-CJ and an assay window of 9 ΔCt for HTT-AJ. […] The percentage response was then fitted to the 4 parametric logistic equation to evaluate the concentration dependence of compound treatment. The increase in AJ mRNA is reported as AC50 (compound concentration having 50% response in AJ increase) while the decrease in CJ mRNA levels is reported as IC50 (compound concentration having 50% response in CJ decrease).

The mark [1] stands for this setting: Table 7, decrease in CJ mRNA, read-out: HTT CJ AC50.
Where [2] appears, read: Table 7, increase in AJ mRNA, read-out: HTT AJ AC50.
Setting [3] is: Table 8, decrease in CJ mRNA, read-out: HTT CJ AC50.
Setting [4] is: Table 8, increase in AJ mRNA, read-out: HTT AJ AC50.

On to `CN(c1ccc(-c2ccc(-c3cnn(C)c3)c3cn[nH]c23)nn1)[C@@H]1C[C@H]2CC[C@@H](C1)N2` [Compound 143], for which the half-maximal activity concentration (AC50) (in general, the concentration giving half of the maximal activity seen) runs as follows: under setting [1], less than 0.5 µM; under setting [2], 0.5 to 5 µM.

With `CN(c1ccc(-c2ccc(-c3cnn(C)c3)c3cn[nH]c23)nn1)C1CC(C)(C)NC(C)(C)C1` [Compound 243, N-methyl-6-[4-(1-methylpyrazol-4-yl)-1H-indazol-7-yl]-N-(2,2,6,6-tetramethylpiperidin-4-yl)pyridazin-3-amine; trifluoroacetic acid], the half-maximal activity concentration (AC50) by setting is: under setting [3], 1 to 10 µM; under setting [4], 1 to 10 µM. As to `c1n[nH]cc1-c1ccc(-c2ccc(N3CCC4(CC3)CNC4)nn2)c2[nH]ncc12` [Compound 238], the AC50 runs as follows: under setting [3], more than 10 µM; under setting [4], more than 10 µM.

In the case of `C[C@H]1C[C@@H](N(C)c2ccc(-c3ccc(-n4cccn4)c4cn[nH]c34)nn2)CCN1` [Compound 159], the half-maximal activity concentration (AC50) by setting is: under setting [1], more than 5 µM; under setting [2], more than 5 µM.

As for `c1n[nH]cc1-c1ccc(-c2ccc(N3CCC4(CCNC4)CC3)nn2)c2[nH]ncc12` [Compound 240], the AC50 runs as follows: under setting [3], more than 10 µM; under setting [4], more than 10 µM.

`C[C@@H]1C[C@H](N(C)c2ccc(-c3ccc(-c4cn[nH]c4)c4c3NC(=O)C4)nn2)CCN1` [Compound 121, 7-(6-[methyl[(2R,4R)-2-methylpiperidin-4-yl]amino]pyridazin-3-yl)-4-(1H-pyrazol-4-yl)-1,3-dihydroindol-2-one]: under setting [2], the AC50 was more than 5 µM. Regarding `C[C@H]1C[C@@H](N(C)c2ccc(-c3ccc(-c4cn[nH]c4)c4cn[nH]c34)nn2)CCN1` [Compound 160], the AC50 under setting [1] is more than 5 µM and the half-maximal activity concentration (AC50) under setting [2] is more than 5 µM. In the case of `c1n[nH]cc1-c1ccc(-c2ccc(O[C@@H]3C[C@H]4CC[C@@H](C3)N4)nn2)c2[nH]ncc12` [Compound 142, 7-[6-[(1R,3S,5S)-8-azabicyclo[3.2.1]octan-3-yloxy]pyridazin-3-yl]-4-(1H-pyrazol-4-yl)-1H-indazole], the concentration at half-maximal activity (AC50) is less than 0.5 µM under setting [1] and 0.5 to 5 µM under setting [2].

As to `c1nc2c(-c3cn[nH]c3)ccc(-c3ccc(N4CCC45CCNCC5)nn3)c2s1` [Compound 266], the half-maximal activity concentration (AC50) was 1 to 10 µM under setting [3] and more than 10 µM under setting [4]. The like results for `CN(c1ccc(-c2ccc(-c3cnn(C)c3)c3cn[nH]c23)nn1)C1CCNCC1` [Compound 242, N-methyl-6-[4-(1-methylpyrazol-4-yl)-1H-indazol-7-yl]-N-(piperidin-4-yl)pyridazin-3-amine;trifluoroacetic acid] were, in that order, more than 10 µM and more than 10 µM. The like results for `CN1C[C@@H]2[C@H](C1)[C@H]2N(C)c1ccc(-c2ccc(-c3cn[nH]c3)c3ncsc23)nn1` [Compound 235, (exo)-N,3-dimethyl-N-{6-[4-(1H-pyrazol-4-yl)-1,3-benzothiazol-7-yl]pyridazin-3-yl}-3-azabicyclo[3.1.0]hexan-6-amine hydrochloride] were, in that order, more than 10 µM and more than 10 µM. With `[2H]C([2H])([2H])N(c1ccc(-c2ccc(-c3cn[nH]c3)c3ncsc23)nn1)C1CC(C)(C)NC(C)(C)C1` [Compound 231, N-(2H3)methyl-6-[4-(1H-pyrazol-4-yl)-1,3-benzothiazol-7-yl]-N-(2,2,6,6-tetramethylpiperidin-4-yl)pyridazin-3-amine], the half-maximal activity concentration (AC50) by setting is: under setting [3], 0.1 to 1 µM; under setting [4], 0.1 to 1 µM.

As for `CC1(C)CC(Nc2ccc(-c3ccc(-c4cn[nH]c4)c4cn[nH]c34)nn2)CC(C)(C)N1` [Compound 275], the half-maximal activity concentration (AC50) under setting [3] fell in the range of 0.1 to 1 µM and the concentration at half-maximal activity (AC50) under setting [4] was 1 to 10 µM.

Consider `C[C@H]1C[C@H](N(C)c2ccc(-c3ccc(-c4cn[nH]c4)c4cc[nH]c34)nn2)CCN1` [Compound 157], for which the AC50 under setting [2] is more than 5 µM.

Take `CN(c1ccc(-c2ccc(-c3cn[nH]c3)c3cn[nH]c23)nn1)C1CCNCC1` [Compound 273]: the AC50 is, setting by setting: under setting [3], more than 10 µM; under setting [4], more than 10 µM.
